≈ marks a conversion by molar mass, not a printed value. Read-outs that look alike come from different tables or passages of the source.
Key:
[1] = test system: quinolone susceptible pneumococci (ciprofloxacin MICs ≦4.0 μg/ml); assay: Agar dilution MICs of 207 quinolone susceptible pneumococcal strains; format: cell-based, Streptococcus pneumoniae; conditions: agar dilution; for MIC: read-out: MIC range
Procedure: All susceptible, and some intermediate and resistant strains, were recent U.S. isolates. The remainder of intermediate and resistant strains were isolated in South Africa, Spain, France, Central and Eastern Europe, and Korea. […] Additionally these strains were tested for mutations in parC, gyrA, parE, and gyrB (Pan, et al., Antimicrob. Agents Chemother. 40:2321-2326, 1996) and for efflux mechanism (Brenwald, et al., Antimicrob. Agents Chemother. 42:2032-2035, 1998). For time-kill studies, 4 penicillin susceptible, 4 intermediate and 4 resistant strains (2 quinolone resistant) were tested, while for PAE studies 5 quinolone susceptible and 1 resistant strains were studied.
(§1) Agar dilution methodology was performed on 234 strains as described previously (M. R. Jacobs, Clin. Infect. Dis. 15:119-127, 1992; Jacobs, et al., Rev. Med. Microbiol. 6:77-93, 1995), using Mueller-Hinton agar (BBL Microbiology Systems, Cockeysville, Md.) supplemented with 5% sheep blood. Broth MICs for 12 strains tested by time-kill and 6 tested by PAE were performed according to NCCLS recommendations (Methods for Dilution Antimicrobial Susceptibility Tests for Bacteria that Grow Aerobically, 3rd Edition, NCCLS, Villanova, Pa.) using cation-adjusted Mueller-Hinton broth with 5% lysed defibrinated horse blood. Standard quality control strains, including Streptococcus pneumoniae ATCC 49619, were included in each run of agar and broth dilution MICs.

[2] = test system: pneumococcal strains; assay: Microbroth dilution MICs of strains tested by time-kill and PAE; format: cell-based; conditions: Streptococcus pneumoniae, read-out: Microdilution MIC
Procedure: as §1

[3] = test system: pneumococci (5 quinolone susceptible and 1 resistant strains); assay: Post-antibiotic effect (PAE) testing; format: cell-based, Streptococcus pneumoniae; conditions: for PAE for non-quinolone compounds: range over strains
Procedure: The post-antibiotic effect (PAE) (Craig, et al., V. Lorian (ed.) Antibiotics in Laboratory Medicine, Williams and Wilkins, Baltimore, pages 296-399, 1996) was determined by the viable plate count method, using Mueller-Hinton broth (MHB) supplemented with 5% lysed horse blood when testing pneumococci. […] Additionally, the one quinolone resistant strain was exposed at quinolone concentrations 5×MIC. Tubes containing 5 ml broth with antibiotic were inoculated with approximately 5×10^6 cfu/ml. Growth controls with inoculum but no antibiotic were included with each experiment. Tubes were placed in a shaking water bath at 35° C. for 1 h. At the end of the exposure period, cultures were diluted 1:1000 to remove antibiotic.
Viability counts were determined before exposure and immediately after dilution (0 h), and then every 2 h until tube turbidity reached a #1 McFarland standard. Inocula were prepared by suspending growth from an overnight blood agar plate in broth. The broth was incubated at 35° C. for 2-4 h in a shaking water bath until turbidity matched a #1 McFarland standard, and checked for viability by plate counts (Spangler, et al., Antimicrob. Agents Chemother. 41:2173-9176, 1997; Spangler, et al., Antimicrob. Agents Chemother. 42:1253-1255, 1998).
The PAE was defined as PAE=T-C; T=time required for viability counts of an antibiotic-exposed culture to increase by 1 log10 above counts immediately after dilution; C=corresponding time for growth control. For each experiment, viability counts (log10 cfu/ml) were plotted against time, and results expressed as the mean of two separate assays±S D (Craig, et al., V. Lorian (ed), Antibiotics in Laboratory Medicine, Williams and Wilkins, Baltimore, pages 296-329, 1996).

[4] = test system: quinolone resistant pneumococci; assay: Determination of efflux mechanism: MICs in the presence and absence of reserpine; format: cell-based, Streptococcus pneumoniae; conditions: for number of strains with lower MICs in the presence of reserpine: of 28 quinolone resistant strains, 10 μg/ml reserpine
Procedure: MICs were determined in the presence and absence of 10 μg/ml of reserpine (Sigma Chemicals, St. Louis, Mo.) as known in the art.
MICs were determined in the presence and absence of […] of reserpine (Sigma Chemicals, St. Louis, Mo., USA) as described previously (Brenwald, et al., Antimicrob. Agents Chemother. 42:2039-2035, 1998 and Davies, et al., Antimicrob. Agents Chemother. 43:1177-1182S, 1999).

[5] = test system: quinolone-resistant Haemophilus influenzae strains; assay: Microdilution MIC determination in HTM for quinolone-resistant Haemophilus influenzae strains; format: cell-based; conditions: 9 quinolone-resistant Haemophilus influenzae strains
Procedure: Inocula were prepared from chocolate agar plates incubated for a full 24 hours by the direct colony suspension method as follows: In a tube of Mueller-Hinton broth (Difco), an organism suspension was made to a density of a 0.5 McFarland standard (1×10^8 CFU/ml). The latter inoculum was diluted in sterile saline such that final organisms suspensions in trays yielded colony counts of 3-8×10^5 CFU/ml. Frozen microdilution trays were obtained from MicroMedia Systems, Inc. (Cleveland, Ohio, USA). Each tray contained all antimicrobials prepared in freshly made HTM. Wells were inoculated with 100 μl suspensions and incubated in ambient air at 35° C. for 20-24 hours. The lowest drug concentration showing no growth was read as the MIC. Standard quality control strains, including H. influenzae ATCC 49766, H. influenzae ATCC 49247, Staphylococcus aureus ATCC 29213 and Escherichia coli ATCC 25922 were included with each run.

[6] = Streptococcus pneumoniae, Penicillin I strains, read-out: MIC90
[7] = Streptococcus pneumoniae, Penicillin R strains
[8] = Streptococcus pneumoniae, Penicillin R strains, read-out: MIC90
[9] = Streptococcus pneumoniae, Penicillin S strains, read-out: MIC90
[10] = strain 1 (S) penicillin susceptible
[11] = strain 2 (S) penicillin susceptible
[12] = strain 3 (S) penicillin susceptible, quinolone-resistant
[13] = strain 5 (I) penicillin intermediate
[14] = strain 6 (I) penicillin intermediate
[15] = strain 9 (R) penicillin resistant
[16] = strain 12 (R) penicillin resistant
[17] = 5×MIC, quinolone resistant strain
[18] = 10×MIC for 1 h, range over 5 quinolone susceptible strains
[19] = Streptococcus pneumoniae, Penicillin I strains
[20] = Streptococcus pneumoniae, Penicillin S strains
[21] = strain 4 (S) penicillin susceptible, quinolone-resistant
[22] = strain 7 (I) penicillin intermediate
[23] = strain 8 (I) penicillin intermediate
[24] = strain 11 (R) penicillin resistant

MIC90 [1, 6] [µg/mL] | MIC50 [1, 7] [µg/mL] | MIC90 [1, 8] [µg/mL] | MIC90 [1, 9] [µg/mL] | MIC90 ([1]; Penicillin R strains) [µg/mL] | SMILES | MIC [2, 10] [µg/mL] | MIC [2, 11] [µg/mL] | MIC [2, 12] [µg/mL] | MIC [2, 13] [µg/mL] | MIC [2, 14] [µg/mL] | MIC [2, 15] [µg/mL] | MIC ([2]; strain 10 (I)) [µg/mL] | MIC [2, 16] [µg/mL] | PAE for non-quinolone compounds ([3]; 10×MIC) [h] | number of strains with lower MICs in the presence of reserpine [4] [strains] | Number of dilutions decrease after incubation with reserpine ([4]; strain 11) [X] | Number of dilutions decrease after incubation with reserpine ([4]; strain 23) [X] | Number of dilutions decrease after incubation with reserpine ([4]; strain 28) [x X] | PAE [3, 17] [h] | PAE [3, 18] [h] | further results
> 128 | 4 (≈ 5.34 µM) | > 128 | 0.5 (≈ 0.668 µM) | >128.0 | CC[C@H]1OC(=O)[C@H](C)[C@@H](O[C@H]2C[C@@](C)(OC)[C@@H](O)[C@H](C)O2)[C@H](C)[C@@H](O[C@@H]2O[C@H](C)C[C@H](N(C)C)[C@H]2O)[C@](C)(O)C[C@@H](C)CN(C)[C@H](C)[C@@H](O)[C@]1(C)O [Azithromycin, azithromycin] | 0.008 (≈ 0.0107 µM) | 0.06 (≈ 0.0801 µM) | > 64 | > 64 | 0.03 (≈ 0.0401 µM) | > 64 | > 64 | > 64 | 1.3 to 3.0 |  |  |  |  |  |  | MIC90 ([1]; Penicillin I strains): >128.0 µg/mL
 |  |  |  |  | O=C(O)c1cn(C2CC2)c2cc(N3CCNCC3)c(F)cc2c1=O [Ciprofloxacin, ciprofloxacin] |  |  |  |  |  |  |  |  |  | 23 | 16 | 8 | 8 | 3.7 | 0.5 to 1.5 | Number of dilutions decrease after incubation with reserpine ([4]; strain 1): 2x X; Number of dilutions decrease after incubation with reserpine ([4]; strain 2): 8x X; Number of dilutions decrease after incubation with reserpine ([4]; strain 6): 2X; Number of dilutions decrease after incubation with reserpine ([4]; strain 8): 2X; Number of dilutions decrease after incubation with reserpine ([4]; strain 9): 8X; Number of dilutions decrease after incubation with reserpine ([4]; strain 10): 2X; Number of dilutions decrease after incubation with reserpine ([4]; strain 13): 2X; Number of dilutions decrease after incubation with reserpine ([4]; strain 18): 2X; Number of dilutions decrease after incubation with reserpine ([4]; strain 19): 2X; Number of dilutions decrease after incubation with reserpine ([4]; strain 20): 2X; Number of dilutions decrease after incubation with reserpine ([4]; strain 21): 2X; Number of dilutions decrease after incubation with reserpine ([4]; strain 22): 2X; Number of dilutions decrease after incubation with reserpine ([4]; strain 24): 2x X; PAE ([3]; 10×MIC, quinolone resistant strain): 6.3 h; MIC50 [5]: 1 µg/mL (≈ 3.02 µM); MIC Range [5]: 0.25 to 8.0 µg/mL
32 (≈ 42.8 µM) | 2 (≈ 2.67 µM) | > 128 | 0.06 (≈ 0.0802 µM) | >128.0 | CC[C@H]1OC(=O)[C@H](C)[C@@H](O[C@H]2C[C@@](C)(OC)[C@@H](O)[C@H](C)O2)[C@H](C)[C@@H](O[C@@H]2O[C@H](C)C[C@H](N(C)C)[C@H]2O)[C@](C)(OC)C[C@@H](C)C(=O)[C@H](C)[C@@H](O)[C@]1(C)O [Clarithromycin, clarithromycin] | 0.008 (≈ 0.0107 µM) | 0.03 (≈ 0.0401 µM) | > 64 | 32 (≈ 42.8 µM) | 0.008 (≈ 0.0107 µM) | > 64 | > 64 | > 64 | 1.8 to 4.5 |  |  |  |  |  |  | MIC50 [1, 19]: 0.03 µg/mL (≈ 0.0401 µM); MIC50 [1, 20]: 0.03 µg/mL (≈ 0.0401 µM); MIC [2, 21]: 0.03 µg/mL (≈ 0.0401 µM); MIC [2, 22]: 0.016 µg/mL (≈ 0.0214 µM); MIC [2, 23]: 0.03 µg/mL (≈ 0.0401 µM); MIC [2, 24]: 0.03 µg/mL (≈ 0.0401 µM)

SMILES | MIC90 [1, 6] [µg/mL] | MIC50 [1, 7] [µg/mL] | MIC90 [1, 8] [µg/mL] | MIC90 [1, 9] [µg/mL] | MIC90 ([1]; Penicillin R strains) [µg/mL] | MIC [2, 10] [µg/mL] | MIC [2, 11] [µg/mL] | MIC [2, 12] [µg/mL] | MIC [2, 13] [µg/mL] | MIC [2, 14] [µg/mL] | MIC [2, 15] [µg/mL] | MIC ([2]; strain 10 (I)) [µg/mL] | MIC [2, 16] [µg/mL] | PAE for non-quinolone compounds ([3]; 10×MIC) [h] | number of strains with lower MICs in the presence of reserpine [4] [strains] | Number of dilutions decrease after incubation with reserpine ([4]; strain 11) [X] | Number of dilutions decrease after incubation with reserpine ([4]; strain 23) [X] | Number of dilutions decrease after incubation with reserpine ([4]; strain 28) [x X] | PAE [3, 17] [h] | PAE [3, 18] [h] | further results
C[C@H]1COc2c(N3CCN(C)CC3)c(F)cc3c(=O)c(C(=O)O)cn1c23 [Levofloxacin, levofloxacin] | 2 (≈ 5.53 µM) | 1 (≈ 2.77 µM) | 2 (≈ 5.53 µM) | 2 (≈ 5.53 µM) |  | 2 (≈ 5.53 µM) | 1 (≈ 2.77 µM) | 32 (≈ 88.6 µM) | 1 (≈ 2.77 µM) | 2 (≈ 5.53 µM) | 2 (≈ 5.53 µM) | 2 (≈ 5.53 µM) | 2 (≈ 5.53 µM) |  | 7 | 4 | 2 | 4 | 1.3 | 0.9 to 2.3 | MIC50 [1, 19]: 1 µg/mL (≈ 2.77 µM); MIC [1, 19]: 0.5 to 4 µg/mL (≈ 1.38 to 11.1 µM); MIC [1, 7]: 1 to 2 µg/mL (≈ 2.77 to 5.53 µM); MIC50 [1, 20]: 1 µg/mL (≈ 2.77 µM); MIC [1, 20]: 0.125 to 4 µg/mL (≈ 0.346 to 11.1 µM); MIC50 ([1]; Streptococcus pneumoniae, all 207 strains (64 penicillin susceptible, 68 intermediate, 75 resistant)): 1 µg/mL (≈ 2.77 µM); MIC90 ([1]; Streptococcus pneumoniae, all 207 strains (64 penicillin susceptible, 68 intermediate, 75 resistant), read-out: MIC90): 2 µg/mL (≈ 5.53 µM); Number of dilutions decrease after incubation with reserpine ([4]; strain 7): 2X; Number of dilutions decrease after incubation with reserpine ([4]; strain 12): 2X; Number of dilutions decrease after incubation with reserpine ([4]; strain 25): 2x X; Number of dilutions decrease after incubation with reserpine ([4]; strain 26): 2x X; MIC [2, 21]: 32 µg/mL (≈ 88.6 µM); MIC [2, 22]: 1 µg/mL (≈ 2.77 µM); MIC [2, 23]: 1 µg/mL (≈ 2.77 µM); MIC [2, 24]: 1 µg/mL (≈ 2.77 µM); MIC50 [5]: 1 µg/mL (≈ 2.77 µM); MIC Range [5]: 0.25 to 4.0 µg/mL

Source: US20040044006A1, “Methods of use of quinolone compounds against pneumococcal and haemophilus bacteria” (priority 1999, published 2004)
